row,Compound,melting point [°C]
1,N#Cc1c(N2CCN(C(=O)c3cccs3)CC2)c2cc(Cl)cnc2n(CC(=O)c2ccccc2)c1=O,316
2,Cc1c(C(C)O)cc(C(C)C)c(-c2ccc(O)cc2)c1Cl (configuration not stated),220 to 222
3,Cc1cc(SCCc2cccc3sc(-c4ccc(C(F)(F)F)cc4)nc23)ccc1OCC(=O)O,97 to 100
4,COc1cccc2c(O)c(C(=O)NCC(=O)O)ncc12,168
5,CSc1sc(C(=O)N2CCN(C)CC2)c2c1C(=O)CC(C)(C)C2,123 to 125
6,Nc1nc(NCc2cccc(I)c2)c2ncn(C3OC(CO)C(O)C3O)c2n1 (configuration not stated),152 to 154
7,COCCOc1ccc(C2=NCCNC2=O)cc1,130 to 132
8,Nc1ccc(Sc2ccccc2)cc1F,48 to 49
9,O=C(O)Cc1ccc(Sc2ccc(O)cc2)cc1,163 to 165
10,CCOP(=O)(CCCN)OCC,54
11,CCOC(=O)c1cc2ccccc2[nH]c1=O,160 to 163
12,Cc1ccc(C(=O)c2ccc(Cl)cc2)c(Cl)c1,58 to 60.5
13,CC(=O)Nc1ccc2c(c1)CCC1CC(=O)NN=C21 (configuration not stated),284
14,C=C(C(=O)O)c1ccc2c(=O)c3ccccc3ccc2c1,232 to 235
15,OCc1cnc2cc(F)ccc2c1O,295 to 300
16,COc1c2c(nn1-c1ccc(Cl)cc1F)CCCC2,100 to 102
17,CCOc1ccc(C(=O)NCc2ccc3c(c2)C(=O)N(C2(C)CCC(=O)NC2=O)C3=O)nc1 (configuration not stated),145 to 147
18,CC(C)C1CC(O)OC(C(C)C2CC(=O)C3C4C(O)C(O)C5C(O)C(O)CCC5(C)C4CCC23C)C1 (configuration not stated),239 to 241
19,COc1cc(/C=C\c2ccc([N+](=O)[O-])cc2)cc(OC)c1OC,140 to 142
20,C=CC(=O)N(C1CC(C)(C)NC(C)(C)C1)C1CC(C)(C)NC(C)(C)C1,115 to 118
21,CCCCC=C1SC(=O)N(CCCCOc2cccn3ccnc23)C1=O,64 to 65
22,Oc1ccccc1C=Cc1nc2ccccc2s1,235 to 236
23,Cc1cccc(C)c1-c1cc(C(N)=O)ccc1C(N)=O,246 to 248
24,Cc1cccc(C)c1NC(=O)CCCCCc1cccnc1,98 to 100
25,O=C(CCCl)Nc1ccc2c(c1NC(=O)CCCl)C(=O)c1ccccc1C2=O,179 to 180
26,CCCCCCc1ccc(C(=O)Nc2ccc3cc(CN4CCCC4)cnc3c2C)cc1,116
27,O=Cc1cn(C(c2ccccc2)(c2ccccc2)c2ccccc2)cn1,186 to 194
28,N#Cc1cc(N2CCCCC2)ccc1[N+](=O)[O-],126 to 127

row,Compound,melting point [°C]
1,CC1(C)CCC(=O)Nc2cc(OCCCCN3CCN(c4cccc(Cl)c4Cl)CC3)ccc21,106 to 108
2,COc1cc(OC)c2c(=O)cc(-c3cccc(C)c3)oc2c1C1=CCN(C)CC1,109 to 110
3,Nc1nc2ccccc2c2c1nc1n2CCOC1,258 to 259
4,CCOCn1c(Cl)c(Cl)c(C#N)c1-c1ccc(Cl)c(Cl)c1,128 to 130
5,CCCc1c(OCCCOc2ccc(C(C)=O)c(OCC(=O)O)c2CCC)ccc(C(C)=O)c1O,151 to 155
6,COc1ccc(C(=O)c2cccc(Br)c2F)cc1,88 to 90
7,CCN(CC)CCn1nc2c3c(c(CNS(C)(=O)=O)ccc31)Sc1ccccc1-2,120 to 125
8,OCCN(Cc1ccccc1)CC1(O)CCN(CCCc2c[nH]c3ccc(-n4cnnc4)cc23)CC1,75 to 78
9,O=C(Cl)N1CC(Oc2ccc(F)cc2Cl)C1,93 to 94
10,COC1(C#Cc2ncn3c2CN(C)C(=O)c2c(Cl)cccc2-3)CCCC1,174 to 175
11,N#CC(Cn1ccnc1)(c1ccccc1)c1ccccn1 (configuration not stated),83 to 85
12,Cc1cc(Cl)ccc1OCC(=O)N1Cc2ccc(C(=O)c3ccc(C(C)(C)C)cc3)n2Cc2ccccc21,168
13,C=CCCCN(C(=O)OC(C)(C)C)c1cc(OCc2ccccc2)c2ccccc2c1I,69 to 71
14,NS(=O)(=O)c1cc(CC(=O)C=CC(=O)O)ccc1Cl,217 to 218
15,CCn1cc(C(=O)O)c(=O)c2cc(F)c(N3CC4CC3CN4Cc3ccccc3)c(F)c21 (configuration not stated),195 to 198
16,COc1cc(OC)c2cnnc(Cl)c2c1,167
17,CCN1C(=O)c2ccc(N)cc2C1=O,169 to 171
18,O=C1NC(=S)S/C1=C\c1ccc(COc2ccc(C(=O)c3ccccc3)cc2)cc1,244 to 246
19,C[Si](C)(ON(Cc1ccccc1)Cc1ccccc1)ON(Cc1ccccc1)Cc1ccccc1,50 to 53
20,CC1(C)CCC(C)(C)c2cc(OCc3ccc(CN)cc3)ccc21,77 to 79
21,CCOC(=O)c1occ(-c2ccccc2)c(=O)c1Br,134
22,COc1cc2c(cc1Nc1ncc(Cl)c(N[C@H]3[C@@H](C(N)=O)[C@@H]4C=C[C@H]3C4)n1)CCN(CC(=O)N1CCCC1)CC2,126 to 145
23,O=C(O)COc1ccc2c(c1)CCc1sc(S(=O)(=O)CCC(c3ccccc3)c3ccccc3)nc1-2,175 to 177
24,N#Cc1ccc2nc(CCl)[nH]c2c1,144 to 146
25,Cc1cc(COP(N)(=O)N(CCCl)CCCl)ccc1[N+](=O)[O-] (configuration not stated),64 to 66
26,COc1ccc2c(c1)c(CC(=O)O)c(C)n2C(=O)c1ccc([N+](=O)[O-])o1,178 to 180
27,COC(=O)C1=C(C)NC(c2csc(C)n2)=NC1c1ccc(F)cc1Cl (configuration not stated),128 to 130

# Results, then the compound that gave them:
row,melting point [°C],Compound
1,97 to 99,CCCN(CCC)c1c([N+](=O)[O-])cc(C#N)c(C)c1[N+](=O)[O-]
2,148 to 149,CN1c2ccc(C#CCOC3CCCCO3)cc2C(O)=C(C(=O)NCc2ccc(Cl)cc2)S1(=O)=O (configuration not stated)
3,198 to 202,CC(=O)Nc1cccc(C(=O)Nc2cccc3cc(Br)cnc23)c1
4,147 to 149,O=C1Cc2cc(NC(=O)C(=O)N3CCC(Oc4ccc(F)cc4)CC3)ccc2N1
5,154 to 157,Oc1ccc(C(=C(c2ccccc2)C(F)(F)F)c2ccc(OCCN3CCOCC3)cc2)cc1
6,240 to 242,CCc1cccc(CNC(=O)c2nc3scc(COCc4ccc(C(=O)O)cc4)c3c(=O)[nH]2)c1
7,49 to 52,COc1cn(C(C)c2ccccc2)c(=O)o1 (configuration not stated)
8,139 to 144,Nc1ccccc1C(=O)Nc1ccc(Br)cc1
9,186 to 190,Oc1ccc2c(-c3ccc(F)cc3F)noc2c1Cl
10,235 to 237,O=C1c2ccccc2C(=O)N1Cc1nnc2n1-c1ccc(Cl)cc1C(c1ccccc1F)=CC2
11,88.5 to 90,O=C1c2cc(OCc3ccccc3Cl)ccc2CCN1Cc1cccnc1
12,177 to 179,COc1ccc2c(c1)c(C)cc(=O)n2Cc1ccccc1Cl
13,152 to 155,O=C(Nc1cc(C(F)(F)F)cc2ncn(-c3ccccc3)c12)c1ccccc1
14,121 to 125,C=C(CN1CCOCC1)C(=O)O
15,81 to 83,CCOC(=O)c1cnc(N2CCSCC2)nc1Cl
16,115 to 117,NC(=O)Cc1cccc(Oc2ccccc2)c1
17,193 to 194,CCOC(=O)c1cn(-c2nccnn2)cn1
18,124 to 125,COc1cc(OC)nc(Sc2c([N+](=O)[O-])c(C)nn2C)n1
19,144 to 145,CNc1cc(F)ccc1C(=O)CS(C)(=O)=O
20,165 to 166,O=C(Nc1ccc2c(c1)OCO2)N1Cc2ccccc2C1
21,222 to 223,NC(=O)N1Cc2c(-c3ccc(F)cc3)ncn2-c2ccccc21
22,212,Cc1ncnn1-c1cc(F)ccc1CNC(=O)c1nc2n(c(=O)c1O)CCN2C(C)C
23,75.5 to 76.5,COc1ccc(-n2cccc2)c([N+](=O)[O-])c1
24,142 to 143,CC(=O)C1CCC2C3CCC4CC(OS(C)(=O)=O)CCC4(C)C3C(OC(=O)CI)CC12C (configuration not stated)

row,melting point [°C],Compound
1,225 to 230,CC(C)c1cc(C=C2NC(=S)NC2=O)cc(C(C)C)c1O
2,230 to 232,C#CCOC1(C(F)(F)F)CN(C)C(=O)Nc2ccc(Cl)cc21 (configuration not stated)
3,149,CO[C@]1(c2cc(F)cc(S(=O)(=O)c3ccc(/C(C)=N/O)cc3)c2)CCO[C@@H](C)C1
4,188 to 192,CC(C)(C)c1ccc(C=CC2=CC(c3ccc(C(C)(C)C)cc3)N(c3ccccc3)N2)cc1 (configuration not stated)
5,89,C[C@@H]1SC(N)=N[C@H]1Cc1ccccc1
6,145 to 147,CN(N)c1ccc(-c2ccccc2)nn1
7,75 to 75.5,CCCOc1cccc(CO)c1I
8,233 to 235,CC(=O)OC1=C(c2ccc(C)cc2)Sc2cc(C)ccc2NC1=O
9,184 to 185,CCCCCC(CC(=O)Nc1cc(C(=O)NC(=O)c2ccncc2)ccc1C(C)(C)C)c1ccc(OC)cc1OC (configuration not stated)
10,80 to 82,CC(C)Oc1ccc(CCCOc2cc(CCC(=O)O)n(-c3ccccc3)n2)c(Oc2ccc(C(F)(F)F)cn2)c1
11,166 to 168,CP(C)(=O)CNc1cc(Oc2ccc(C(F)(F)F)cc2Cl)ccc1[N+](=O)[O-]
12,86,O=C(O)CCCCCCCCCCCCCCCCCCCO
13,201 to 203,Fc1ccc(-n2c3c(c4cc(F)ccc42)CN(CCc2ccc4ccccc4n2)CC3)cc1
14,67 to 74,COc1cc(C2CCN(C[C@@H](C)O)CC2)ccc1Nc1ncc2ccc(-c3ccccc3OC)n2n1
15,170,CS(=O)(=O)c1ccc(-c2nc(-c3ccccc3)nn2-c2ccc(Cl)cc2)cc1
16,115 to 116,CCCCCCCCCCCCP(=O)(O)CCCNC(=O)OCc1ccccc1
17,44 to 45,Cc1oncc1C(=O)N1CCC(C)CC1
18,88,CCCCCCCCCCCCCCCCCCC(CO)CO
19,258 to 260,O=c1oc2cc(O)c(O)cc2c(O)c1C1=CCOc2oc3ccccc3c(=O)c21
20,265,Nc1c(F)c(N2CCC(n3cc(-c4ccccc4)nn3)C2)c(F)c2c1c(=O)c(C(=O)O)cn2C1CC1 (configuration not stated)
21,169 to 171,O=C(O)c1ccccc1Nc1cccc(Br)c1
22,111,COc1ccc(-c2cccs2)cc1
23,115 to 120,CC12C=CC(C)(O1)C(Br)C(=O)C2Br (configuration not stated)

# Source: a melting point compilation (Tetko et al.; mined from patent text by program, amines drawn as free bases though some values may be those of a salt)
